Experimental data from patent EP2616456B1, “NUCLEAR EXPORT INHIBITORS” (Universitätsmedizin der Johannes Gutenberg-Universität Mainz, priority 2010, dated 2012).
Entries after “also recorded” stand apart in the source; their conditions may differ.

Legend:
Assay type in all cases: cell-based
KASUMI-1 = assay: Cell death, KASUMI-1; conditions: KASUMI-1 (acute myeloid leukemia, AML), 25µM
Survivin = assay: Nuclear export of Survivin-GFP fusion stably expressed in A431 cells; conditions: A431, stable expression, 25µM
Text: Nuclear export of Survivin is crucial for its tumor promoting cytoprotective activity (Engels et al., 2007; Knauer et al., 2007a; Knauer et al., 2007b).

RKO = assay: Cell viability (CellTiter-Glo) and cell death, RKO; conditions: for cell death induced by treatment: RKO (colon cancer), 25µM; for viability compared to the control: RKO, 100µM, 72h, CellTiter-Glo
Protocol: (§1) To test the anti-cancer activity of the compounds, several cancer cell lines, currently used as models for different epithelial cancers and leukemias, were treated with the indicated inhibitors. […] Every 24h, the cell culture medium was replaced by fresh compound-containing medium. 72h post treatment, cell were analyzed by adding 100µl CellTiter-Glo® assay reagent (Promega). Luminescence was measured with a LuminoskanAscent device (ThermoScientific). Cells treated with a corresponding amount of DMSO only were use as a control. The luminescence (equals cell viability) of said control was set to 100%.

LS174T = assay: Cell viability (CellTiter-Glo) and cell death, LS174T; conditions: for cell death induced by treatment: LS174T (colon adenocarcinoma), 25µM; for viability compared to the control: LS174T, 100µM, 72h, CellTiter-Glo
Protocol: as §1

RevNES-biosensor [1] = assay: RevNES-biosensor translocation in living FaDu, MDA-MB231 and SW480 cells, fluorescence microscopy; conditions: at Topt
Protocol: (§2) The activity of compounds C3, C5 and C24 to inhibit NES-mediated nuclear export in living cells was analyzed as described in Fetz et al., 2009 using living HeLa (cervix carcinoma), FaDu (head and neck cancer), MDA-MB231 (mammacarcinoma) and SW480 cells (colon cancer) which transiently expressed the RevNES-biosensor. The RevNES-biosensor is a fusion protein composed of (from N to C terminus) the SV40 large T-antigen nuclear localization signal (NLS), glutathion-S-transferase (GST), green fluorescent protein (GFP) and the nuclear export signal (NES) of the HIV-1 (human immunodeficiency virus) Rev protein (RevNES).
Maximum nuclear localization of fluorescence was observed after 2h (C3) and 5h (C5), respectively. Table 2: Cellular localization of green fluorescent RevNES-biosensor

RevNES-biosensor [2] = assay: RevNES-biosensor translocation (NES-mediated nuclear export) in living HeLa cells, fluorescence microscopy; conditions: for Cellular localization of green fluorescent RevNES-biosensor: HeLa; for Topt at 25µM: Table 4, fluorescence microscopy; for Mode of Inhibition: reversal of export inhibition after 24h, C5: 5-12h observation
Protocol: as §2
The cells of the control were treated with a corresponding amount of DMSO only. The cellular localization of RevNES-biosensor was monitored by fluorescence microscopy. […] Maximum of cellular accumulation was observed after 1h (C24), after 2h (C3) and after 5h (C5), respectively. […] Thus, the inhibitory activity of C3 and C24 (reversible) but not of C5 (irreversible) was reversed after 24h. Table 1: Cellular localization of green fluorescent RevNES-biosensor
Table 3: Cellular localization of green fluorescent RevNES-biosensor
IC50 value corresponds to compound concentration reducing HeLa cell viability by 50%. Topt is the time point post treatment when maximum nuclear export inhibition was observed by fluorescence microscopy. Table 4: Functional characteristics of nuclear export inhibitors

HeLa cells = assay: Apoptosis by immunoblot detection of cleaved Caspase 3 and PARP cleavage in HeLa lysates; conditions: 25µM, lysates 72h post treatment
Text: Lysates of cells treated DMSO only were used as a control.

| SMILES | cell death induced by treatment (KASUMI-1) | cell death induced by treatment (RKO) | viability compared to the control (RKO) | cell death induced by treatment (LS174T) | viability compared to the control (LS174T) | Cellular localization of green fluorescent RevNES-biosensor (RevNES-biosensor [1]; FaDu, 25µM) | Cellular localization of green fluorescent RevNES-biosensor (RevNES-biosensor [1]; MDA-MB231, 25µM) | Cellular localization of green fluorescent RevNES-biosensor (RevNES-biosensor [1]; SW480, 25µM) | Cellular localization of green fluorescent RevNES-biosensor (RevNES-biosensor [2]; 25µM, T = 0h) | Cellular localization of green fluorescent RevNES-biosensor (RevNES-biosensor [2]; 25µM, T = 24h) | Cellular localization of green fluorescent RevNES-biosensor (RevNES-biosensor [2]; 25µM, at Topt) | Cellular localization of green fluorescent RevNES-biosensor (RevNES-biosensor [2]; 75µM, T = 0h) | Cellular localization of green fluorescent RevNES-biosensor (RevNES-biosensor [2]; 150µM, T = 0h) | Topt at 25µM (RevNES-biosensor [2]; 25µM) | Mode of Inhibition (RevNES-biosensor [2]) | drug-induced apoptosis (cleaved Caspase 3 and PARP cleavage) (HeLa cells) | also measured |
| --- | --- | --- | --- | --- | --- | --- | --- | --- | --- | --- | --- | --- | --- | --- | --- | --- | --- |
| O=C(NC1CS(=O)(=O)CC1Cl)c1cccc(C(F)(F)F)c1 (stereo not drawn) [Compound C5, N-(4-chloro-1,1-dioxothiolan-3-yl)-3-(trifluoromethyl)benzamide] | cell death | cell death | significantly reduced viability | cell death | significantly reduced viability | nuclear accumulation; also recorded: nucleus | nuclear accumulation; also recorded: nucleus | nuclear accumulation; also recorded: nucleus | cytoplasm | nuclear fluorescence; also recorded: nucleus | nuclear accumulation; also recorded: nucleus | cytoplasm | cytoplasm | 5 to 6 h | irreversible; also recorded: irreversible* | drug-induced apoptosis was shown | Localization of Survivin-GFP fusion (nuclear export of Survivin) (Survivin): nuclear accumulation; Cellular localization of green fluorescent RevNES-biosensor (RevNES-biosensor [2]; 25µM, T = 3h): nucleus/cytoplasm; Cellular localization of green fluorescent RevNES-biosensor (RevNES-biosensor [2]; 75µM, T = 3h): nucleus; Cellular localization of green fluorescent RevNES-biosensor (RevNES-biosensor [2]; 150µM, T = 3h): nucleus |
| NC(=O)c1c(NC(NC(=O)c2ccccc2F)(C(F)(F)F)C(F)(F)F)sc2c1CCCC2 [Compound C3, 2-[[1,1,1,3,3,3-hexafluoro-2-[(2-fluorobenzoyl)amino]propan-2-yl]amino]-4,5,6,7-tetrahydro-1-benzothiophene-3-carboxamide] | cell death | cell death | significantly reduced viability | cell death | significantly reduced viability | nuclear accumulation; also recorded: nucleus | nuclear accumulation; also recorded: nucleus | nuclear accumulation; also recorded: nucleus | cytoplasm | predominantly localized in the cytoplasm | nuclear accumulation; also recorded: nucleus | cytoplasm | cytoplasm | ∼1h | reversible | drug-induced apoptosis was shown | Cellular localization of green fluorescent RevNES-biosensor (RevNES-biosensor [2]; 25µM, T = 1h): nucleus/cytoplasm; Cellular localization of green fluorescent RevNES-biosensor (RevNES-biosensor [2]; 75µM, T = 1h): nucleus; Cellular localization of green fluorescent RevNES-biosensor (RevNES-biosensor [2]; 150µM, T = 1h): nucleus |
